Data: US7332608B2, “Anthranilamides and methods of their use” (SANOFI-AVENTIS Deutschland GmbH, priority 2001, dated 2008)

Molecular target: T1, Human Kv1.5 channels (Homo sapiens, UniProt P22460)
T1 construct: expressed in transfected cells; host or cells: Xenopus laevis oocytes injected with in vitro synthesized Kv1.5-encoding RNA
Assay: Kv1.5 currents in Xenopus oocytes, two-microelectrode voltage clamp
Type: cell-based
Details: human Kv1.5 expressed in Xenopus laevis oocytes; voltage jumps 500 ms to 0 mV and 40 mV; room temperature; Hill equation
Experimental: Human Kv1.5 channels were expressed in Xenopus oocytes. For this purpose, firstly ooytes were isolated from Xenopus laevis and were defolliculated. Kv1.5-encoding RNA which had been synthesized in vitro was then injected into these oocytes. After 1-7 days of Kv1.5 protein expression, the Kv1.5 currents were measured on the oocytes by the two-microelectrode voltage clamp technique. The Kv1.5 channels were for this purpose usually activated with voltage jumps lasting 500 ms to 0 mV and 40 mV. A solution of the following composition flowed through the bath: NaCl 96 mM, KCl 2 mM, CaCl2 1.8 mM, MgCl2 1 mM, HEPES 5 mM (titrated to pH 7.4 with NaOH). These experiments were carried out at room temperature. The following were employed for data acquisition and analysis: geneclamp amplifier (Axon Instruments, Foster City, USA) and MacLab D/A converter and software (ADInstruments, Castle Hill, Australia). The compounds of the invention were tested by adding them in various concentrations to the bath solution. The effects of the compounds were calculated as percentage inhibition of the Kv1.5 control current which was obtained when no compound was added to the solution. The data were then extrapolated using the Hill equation in order to determine the inhibitory concentrations IC50 for the respective compounds.

T1 sequence (P22460 whole entry): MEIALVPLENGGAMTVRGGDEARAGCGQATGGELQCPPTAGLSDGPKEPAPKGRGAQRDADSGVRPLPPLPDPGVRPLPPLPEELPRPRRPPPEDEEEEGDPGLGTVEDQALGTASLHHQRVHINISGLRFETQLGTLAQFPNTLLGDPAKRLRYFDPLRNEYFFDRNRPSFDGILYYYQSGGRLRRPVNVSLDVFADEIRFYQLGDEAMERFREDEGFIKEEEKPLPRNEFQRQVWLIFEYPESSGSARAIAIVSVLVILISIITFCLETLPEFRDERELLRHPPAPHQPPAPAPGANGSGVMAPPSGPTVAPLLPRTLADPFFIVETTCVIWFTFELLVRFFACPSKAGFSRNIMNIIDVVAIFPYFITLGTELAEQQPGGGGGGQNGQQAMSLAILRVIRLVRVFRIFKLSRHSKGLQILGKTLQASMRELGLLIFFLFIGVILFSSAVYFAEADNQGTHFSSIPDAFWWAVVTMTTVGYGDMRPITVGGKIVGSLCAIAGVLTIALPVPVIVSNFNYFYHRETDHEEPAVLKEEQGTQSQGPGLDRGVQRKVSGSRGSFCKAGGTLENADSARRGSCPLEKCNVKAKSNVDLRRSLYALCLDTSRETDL

| IC50 [nM] | Compound |
| --- | --- |
| 2200 | CC[C@H](NC(=O)c1cc(OC)ccc1NS(=O)(=O)C(C)C)c1ccccc1 [Example 149] |
| 300 | CC[C@H](NC(=O)c1cc(OC)ccc1NS(=O)(=O)c1ccc(OC)cc1)c1ccccc1 [Example 150] |
| 1500 | CC[C@H](NC(=O)c1ccccc1NS(=O)(=O)c1ccc(OC)c(OC)c1)c1ccccc1 [Example 151] |
| 2600 | CC[C@H](NC(=O)c1cc(O)ccc1NS(=O)(=O)c1ccc(C)cc1)c1ccccc1 [Example 152, 5-Hydroxy-N-(1-phenylpropyl)-2-(toluene-4-sulfonylamino)benzamide] |
